Where two headings read alike, the source gives them in different places. Marks after values point to notes of the source that are not given here.
Legend:
Cough in Guinea Pigs = test system: Cough in Guinea Pigs; design: species or system Dunkin Hartley guinea pigs; conditions: guinea pig, in vivo
[1] = molecular target: T1, Delta opiate binding sites (Rattus norvegicus, UniProt P33533); design: species or system Sprague-Dawley rats
T1 construct: from tissue; host or cells: rat brain minus cerebellum, twice-washed P2 membrane fraction
T1 sequence (P33533 whole entry): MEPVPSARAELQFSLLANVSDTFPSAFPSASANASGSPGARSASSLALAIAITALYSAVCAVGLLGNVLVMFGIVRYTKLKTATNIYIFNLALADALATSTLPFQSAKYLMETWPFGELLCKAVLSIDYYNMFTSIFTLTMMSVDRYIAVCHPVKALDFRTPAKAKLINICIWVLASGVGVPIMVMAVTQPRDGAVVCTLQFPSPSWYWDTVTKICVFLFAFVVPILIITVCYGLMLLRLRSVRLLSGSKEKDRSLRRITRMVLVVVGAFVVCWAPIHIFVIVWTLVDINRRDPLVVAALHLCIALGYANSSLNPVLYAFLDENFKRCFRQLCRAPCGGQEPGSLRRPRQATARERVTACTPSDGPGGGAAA

Mu opiate binding sites = molecular target: T2, Mu opiate binding sites (Rattus norvegicus, UniProt P33535); design: species or system Sprague-Dawley rats
T2 construct: from tissue; host or cells: rat brain minus cerebellum, twice-washed P2 membrane fraction
T2 sequence (P33535 whole entry): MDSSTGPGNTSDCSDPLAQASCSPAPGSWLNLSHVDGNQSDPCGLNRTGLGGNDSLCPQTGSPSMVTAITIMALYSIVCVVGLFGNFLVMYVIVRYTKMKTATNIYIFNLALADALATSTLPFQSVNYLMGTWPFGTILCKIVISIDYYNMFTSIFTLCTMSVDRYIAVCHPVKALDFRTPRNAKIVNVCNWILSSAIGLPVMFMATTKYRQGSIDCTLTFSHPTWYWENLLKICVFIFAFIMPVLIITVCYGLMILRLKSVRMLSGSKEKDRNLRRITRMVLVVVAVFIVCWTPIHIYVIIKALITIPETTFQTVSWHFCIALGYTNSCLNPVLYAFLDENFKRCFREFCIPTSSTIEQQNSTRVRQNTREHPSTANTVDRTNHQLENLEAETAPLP

| SMILES | inhibition of cough (Cough in Guinea Pigs) | % Inhibition of Coughing 5 min (Cough in Guinea Pigs; po) | % Inhibition of Coughing 10 min (Cough in Guinea Pigs; po) | % Inhibition of Coughing 5 min (Cough in Guinea Pigs; sc) | % Inhibition of Coughing 10 min (Cough in Guinea Pigs; sc) | IC50 ([1]; read-out: IC₅₀ Delta) | Ki ([1]; read-out: Ki Delta) | IC50 (Mu opiate binding sites; read-out: IC₅₀ Mu) | Ki (Mu opiate binding sites; read-out: Ki Mu) |
| --- | --- | --- | --- | --- | --- | --- | --- | --- | --- |
| COc1ccc2c3c1O[C@H]1[C@@H](O)C=C[C@H]4[C@@H](C2)N(C)CC[C@@]341 [(-)-codeine] | 46% | 42.7*** % | 38.7*** % | 46.2*** % | 46.1*** % | – | – | – | – |
| CC(C)C[C@H](NC(=O)[C@H](Cc1ccccc1)NC(=O)CNC(=O)[C@H](NC(=O)[C@@H](N)Cc1ccc(O)cc1)[C@H](C)O)C(=O)N[C@H](C(=O)O)[C@@H](C)O [DTLET, D-Thr²-Leu-Enkephalin-Thr] | – | – | – | – | – | 0.0027 µM | 0.0012 µM | 0.184 µM | 0.105 µM |

Source: patent publication EP0418591B1 (priority 1989, dated 1991)
